According to patent US20080138834A1, “Cellular antagonists of GPCR physiology” (Institute Pasteur Korea, priority 2006, published 2008):
Entries after “also recorded” stand apart in the source; their conditions may differ. Where two headings read alike, the source gives them in different places.

Columns and labels:
HeLa cells = assay: Housekeeping endocytosis assay (BODIPY-FL dextran internalization); type: cell-based
rat thoracic aorta = assay: Ex-vivo rat thoracic aorta constriction-relaxation model; details: 10 μM compound 30 min, then 40 nM endothelin; normalized to noradrenalin contraction
Description: As previously described, male rats (Sprague-Dawley) weighing 300 to 400 g were anesthetized with sodium pentobarbital (50 mg/kg i.p.), and thoracic aorta was removed, cleaned of fat and connective tissue placed in Krebs bicarbonate solution (118 mM NaCl; 4.7 mM KCl; 25 mM NaHCO3; 2.5 mM CaCl2; 1.2 mM KH2PO4; 1.2 mM MgSO4; 11 mM glucose) bubbled with 95% O2 and 5% CO2^39,40. The whole aorta was cut along a close spiral to produce a strip of 5 to 6 cm long. The strip was mounted on a Grass force displacement transducer at a tension of 2 grams and placed in a 25 ml chamber maintained at 34° C. Following mounting of aorta strip on transducer, noradrenalin was added to a final concentration of 5 μM and increase of tension-constriction was recorded for 20 min. Subsequently, the noradrenalin was washed with 16 chamber volumes (400 ml) until tension returned to 2 grams. […] Tension was recorded throughout the experiment. […]
To correlate the effect of kinase inhibitors that perturb ETAR intracellular pathway and cAMP production to a physiological relevance we have examined compound effect(s) on the ex-vivo rat thoracic aorta constriction-relaxation model (^39, 40). […] Contractile responses were assessed after aortal strips were treated with 10 μM Gö6976, 10 μM Erbstatin A or 10 μM H-89 for 30 minutes followed by treatment with Endothelin. […]

[1] = tested on: M1 muscarinic acetylcholine receptor (M1AR); assay: Agonist-induced M1AR endocytosis in polarized MDCK cells; type: cell-based; details: 10 μM compound, vs untreated agonist stimulated control
Description: Sensitivity of GPCR internalization to kinase inhibitors acting on ETAR endocytosis. (a) Fully polarized MDCK cells expressing the M1AR were treated with 100 nM carbachol, DMSO, or compounds then fixed and stained with antibodies against the M1AR epitope tag (green) or the GP130 apical plasma marker (red). Cells were pretreated with compounds: 10 μM RO 31 8220, 10 μM Erbstatin A, 10 μM H-89, with 100 nM agonist, agonist alone or DMSO. Scale bar: 20 μm. (b) HEK293T cells expressing a human kappa Opioid receptor fusion to the green fluorescent protein were treated with 10 μM Gö 6976, 10 μM Erbstatin A, 10 μM H-89, 10 μM KT-5720 with 300 nM agonist, agonist alone or DMSO. Scale bar 20 μm. (c) Quantification of kappa Opioid receptor internalization (endosomes/cell) after compound treatment and agonist treatment.
If the involvement of second messenger kinases in agonist induced endocytosis of the ETAR was a generic feature of Gq coupled receptor activation, it may be expected that the kinase inhibitors affecting ETAR endocytosis may have effects on related receptors or related receptors in other cell lines. The kinase inhibitors that disrupted agonist induced ETAR endocytosis were assayed on agonist-induced endocytosis of the Gq/11 coupled M1 muscarinic acetylcholine receptor (M1AR). […]

[2] = tested on: ETAR: GFP expressing cells; assay: Single cell visual screening: red fluorescent dextran internalization in ETAR:GFP expressing cells; type: cell-based; details: 10 μM compound, 10 min red fluorescent dextran
Description: Single cell differential screening. […] (b) 10 μM Erbstatin A. (c) 10 μM H-89 (d) DMSO (e) 40 nM endothelin-1 alone. Confocal images are from a 1 μm Z section. […] Scale bar 5 μm.
The effect of the 3 kinase inhibitors affecting ETAR on receptor activation and housekeeping endocytosis were simultaneously imaged in ETAR: GFP expressing cells by internalization of red fluorescent dextran (FIG. 3). […] Thus, inhibition of protein kinase A and C second messenger activated kinases potently altered ETAR GPCR internalization but left housekeeping endocytosis unaffected.

cAMP = cAMP production after ET-1 stimulation, indirect ELISA; type: cell-based; details: for effect on intra-cellular cAMP after ET-1 stimulation: 10 μM compound, 40 nM ET-1
Description: cAMP production requires sequential G-protein activation.
All fine chemicals were purchased from Sigma-Aldrich. Fluorophores and their reactive forms were purchased from Molecular Probes (Eugene, USA). DRAQ5 was from BioStatus (Shepshed, UK). 40 kDa BODIPY-F1-dextran was synthesized from amino dextran using standard protocols. […] Kinase and phosphatase inhibitors were purchased as 95-99% pure 10 mM stock solutions in dimethylsulfoxide or water (Biomol Hamburg, Germany). Stock solutions and formatted assay plates were stored at −20° C. cAMP was measured by indirect ELISA (R & D systems, MN USA) following the manufacturers protocol for cAMP acetylation, and a cAMP standard.
GPCRs can couple to multiple G-proteins and switching between G-proteins is generally mediated by protein phosphorylation^36-38. We assessed the importance of Gq coupling and PKC activity in the generation of intra-cellular cAMP through Gs following agonist stimulation.

[3] = tested on: human kappa Opioid receptor; type: cell-based
[4] = 10 μM compound, fluorescent dextran uptake

CC(C)(C)c1cc(/C=C(\C#N)C(N)=S)cc(C(C)(C)C)c1O [AG-879]
effect on housekeeping endocytosis (integrated intensity per cell) (HeLa cells; 10 μM compound, data not shown): reduced
effect on housekeeping endocytosis (number of endosomes) (HeLa cells; [4]): reduced the number of endosomes

CN(C)CCCn1cc(C2=C(c3c[nH]c4ccccc34)C(=O)NC2=O)c2ccccc21 [GF 109203X]
effect on housekeeping endocytosis (integrated intensity per cell) (HeLa cells): reduced
effect on housekeeping endocytosis (number of endosomes) (HeLa cells): reduced the number of endosomes; also recorded: blocked

Cn1c2ccccc2c2c3c(c4c5ccccc5n(CCC#N)c4c21)CNC3=O [Gö 6976]
endothelin dependent aortal strip contraction vs endothelin alone (rat thoracic aorta): increased contraction

CC1CNCCN1S(=O)(=O)c1cccc2cnccc12 (stereo not shown) [H7]
effect on housekeeping endocytosis (number of endosomes) (HeLa cells; [4]): no significant effect

O=S(=O)(NCCNC/C=C/c1ccc(Br)cc1)c1cccc2cnccc12 [H-89]
agonist-induced M1AR endocytosis [1]: unaffected
effect on housekeeping endocytosis (number of endosomes) (HeLa cells; [4]): None of these compounds had a measurable effect
housekeeping endocytosis, single cell imaging [2]: unaltered
effect on intra-cellular cAMP after ET-1 stimulation (cAMP): markedly increased cAMP
increase of cellular cAMP (cAMP; PKA inhibition with H-89, endothelin stimulated): two-fold
endothelin dependent aortal strip contraction vs endothelin alone (rat thoracic aorta): significantly lower constriction
effect on kOPr internalization [3]: moderate

CCCCCCOC(=O)[C@]1(O)C[C@@H]2O[C@@]1(C)n1c3ccccc3c3c4c(c5c6ccccc6n2c5c31)C(=O)NC4 [KT5720]
effect on kOPr internalization [3]: pronounced stimulation of receptor uptake

CCCCCCCCCCCCCCCC(=O)OC(CC(=O)O)C[N+](C)(C)C.[Cl-] (stereo not drawn) [Palmitoyl DL carnitine chloride]
effect on housekeeping endocytosis (number of endosomes) (HeLa cells; [4]): no significant effect

Cn1cc(C2=C(c3cn(CCCSC(=N)N)c4ccccc34)C(=O)NC2=O)c2ccccc21 [Ro 31-8220]
agonist-induced M1AR endocytosis [1]: unaffected
effect on housekeeping endocytosis (number of endosomes) (HeLa cells; [4]): None of these compounds had a measurable effect
effect on housekeeping endocytosis (number of endosomes) (HeLa cells; 10 μM compound, fluorescent dextran uptake, listed as Ro 31 8220): no significant effect
housekeeping endocytosis, single cell imaging [2]: unaffected
effect on intra-cellular cAMP after ET-1 stimulation (cAMP): blocked cAMP production

CC[C@H](C)[C@H](NC(=O)[C@H](CC(=O)O)NC(=O)[C@H](CC(C)C)NC(=O)[C@H](Cc1c[nH]cn1)NC(=O)[C@@H]1CSSC[C@H](N)C(=O)N[C@@H](CO)C(=O)N[C@H]2CSSC[C@H](NC(=O)[C@H](CCC(=O)O)NC(=O)[C@H](CCCCN)NC(=O)[C@H](CC(=O)O)NC(=O)[C@H](CCSC)NC(=O)[C@H](CC(C)C)NC(=O)[C@H](CO)NC(=O)[C@H](CO)NC2=O)C(=O)N[C@@H](C(C)C)C(=O)N[C@@H](Cc2ccc(O)cc2)C(=O)N[C@@H](Cc2ccccc2)C(=O)N1)C(=O)N[C@H](C(=O)N[C@@H](Cc1c[nH]c2ccccc12)C(=O)O)[C@@H](C)CC [endothelin-1]
intra-cellular cAMP after stimulation with ET-1 alone (cAMP; 40 nM ET-1, after 10 min): robust increase in intra-cellular cAMP
time of peak in cAMP production following stimulation (cAMP; endothelin stimulation): 20 min

Cc1cc(O)c2c(=O)c3c(O)cc(O)c4c5c(O)cc(O)c6c(=O)c7c(O)cc(C)c8c1c2c(c34)c(c78)c65 [hypericine]
housekeeping endocytosis compared to control (HeLa cells): 0.2 fold

CC(=O)c1c(O)c(C)c(O)c(Cc2c(O)c3c(c(C(=O)/C=C/c4ccccc4)c2O)OC(C)(C)C=C3)c1O [rottlerin]
effect on housekeeping endocytosis (number of endosomes) (HeLa cells): no effect

CN[C@@H]1C[C@H]2O[C@@](C)([C@@H]1OC)n1c3ccccc3c3c4c(c5c6ccccc6n2c5c31)C(=O)NC4 [staurosporine]
effect on housekeeping endocytosis (integrated intensity per cell) (HeLa cells; 10 μM compound, data not shown): reduced
effect on housekeeping endocytosis (number of endosomes) (HeLa cells; [4]): reduced the number of endosomes; also recorded: inhibited

CC(C)(C)c1cc(C=C(C#N)C#N)cc(C(C)(C)C)c1O [tyrphostin 9]
effect on housekeeping endocytosis (integrated intensity per cell) (HeLa cells; 10 μM compound, data not shown): reduced
effect on housekeeping endocytosis (number of endosomes) (HeLa cells; [4]): reduced the number of endosomes
